Consider 15 compounds from patent publication US20230312587A1, “PTERIDINONE COMPOUNDS AND USES THEREOF” (Vertex Pharmaceutical Incorporated, priority 2018, published 2023).

Common to all, as to format: cell-based
The subject of test [1] is Hek293 WFS1 over-expressor. The test is described as follows: In vitro cell viability (CellTiter-Glo), Hek293 WFS1 over-expressor. Particulars: read-out: Hek293 WFS1 viability. The procedure, abridged: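 HEK293 cells stably overexpressing WFS1 via retroviral transduction (puromycin-selected), with empty-vector cells as counterpart, plated 1,000/well. Compounds added at various concentrations after overnight attachment; viability by CellTiter-Glo luminescence after 96 h, reported as IC50.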
A general note: In ATP-based viability assays light output follows the ATP content of the culture.

The test system of test [2] is HepG2 XBP1(u)-Luc cells. The test is described as follows: HepG2 XBP1 reporter assay. The conditions noted are these: 6 h. In a few lines:
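Reporter cells are HepG2 stably carrying unspliced XBP1 fused to firefly luciferase, which becomes in-frame after IRE1alpha-mediated splicing. SteadyGlo luminescence was normalized to DMSO-treated cells for IC50 calculation.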
Background: Reporter assays use an easily measured gene product as a stand-in for the process of interest.

Test [3] relates to Hek293 empty vector. The experiment in a line: In vitro cell viability (CellTiter-Glo), Hek293 empty vector. Particulars: read-out: Hek293 empty vector viability. In a few lines: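 HEK293 cells stably transduced with empty pCLPCX retroviral vector (puromycin-selected), seeded 1,000 cells/well, treated next day with compounds at various concentrations. Viability read by CellTiter-Glo luminescence 96 hrs after compound addition; IC50 derived.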

For test [4], the system named is Colo-205 cells. The experiment in a line: Calcium flux assay (FLIPR Calcium 5). The conditions noted are these: FLIPR Calcium 5, measured over 36 minutes. The method, then:
Compounds described herein induced ER stress by causing intracellular calcium flux. Calcium flux was measured in Colo-205 cells using the FLTPR® Calcium 5 Assay Kit according to manufacter's protocol (Molecular Devices, Cat. #R8186) on a FLIPR3 system (Molecular Devices). Calcium flux is measured over 36 minutes. The Colo-205 calcium flux assay data are summarized in Table 47: A<0.6 μM; 0.6 μM≤B<2.0 μM; 2.0 μM≤C<10.0 μM; D≥10.0 μM.
On the technique in general: A change in cytosolic calcium serves as a functional read-out for many receptors and channels.

Where [5] appears, read: Homo sapiens, HEK293, Hek293 WFS1 over-expressing cells.
Setting [6] is: Hek293 WFS1 over-expressing cells.

In general, EC50 refers to the concentration at which the effect is half-maximal.

Like-named read-outs stand apart in the source and are kept apart here. Where only a bound is given, the exact number is not on record here.

For the compound `Cc1nc(N(C)Cc2cnn(Cc3ccc(C(F)(F)F)nc3)c2)nc2c1NC(=O)[C@H](C)N2C` [Compound 403, (7S)-4,7,8-trimethyl-2-(methyl((1-((6-(trifluoromethyl)pyridin-3-yl)methyl)-1H-pyrazol-4-yl)methyl)amino)-7,8-dihydropteridin-6(5H)-one], the IC50 in test [1] (setting [5]) is ≥ 3000 nM; in test [2] (Homo sapiens) it was ≥ 10000 nM; in test [3] (Homo sapiens, HEK293), ≥ 3000 nM. Also, in test [4] (Homo sapiens, COLO 205, 0.6 h), the EC50 is ≥ 10000 nM.

With `CC(=O)N(Cc1cnn(Cc2ccc(C(F)(F)F)nc2)c1)c1nc(C)c2c(n1)N(C)[C@@H](C)C(=O)N2` [Compound 405, (7S)-N-((1-((6-(trifluoromethyl)pyridin-3-yl)methyl)-1H-pyrazol-4-yl)methyl)-N-(4,7,8-trimethyl-6-oxo-5,6,7,8-tetrahydropteridin-2-yl)acetamide], the IC50 in test [1] (setting [5]) is ≥ 3000 nM; in test [2] (Homo sapiens), ≥ 10000 nM; in test [3] (Homo sapiens, HEK293), ≥ 3000 nM. The EC50 in test [4] (Homo sapiens, COLO 205, 0.6 h) was ≥ 10000 nM.

Consider `Cc1nc(NCc2cnn(Cc3ccc(Cl)nc3)c2)nc2c1NC(=O)[C@H](C(C)C)N2C` [Compound 409, (7S)-2-(((1-((6-chloropyridin-3-yl)methyl)-1H-pyrazol-4-yl)methyl)amino)-7-isopropyl-4,8-dimethyl-7,8-dihydropteridin-6(5H)-one], for which the IC50 in test [1] (setting [5]) was < 60 nM; in test [2] (Homo sapiens), < 600 nM; in test [3] (Homo sapiens, HEK293) it was ≥ 3000 nM. The EC50 in test [4] (Homo sapiens, COLO 205, 0.6 h) fell in the range of 600 to 2000 nM.

Consider `Cc1nc(NCc2cn(Cc3ccc(C(F)(F)F)nc3)nc2Br)nc2c1NC(=O)[C@H](C)N2C` [Compound 412, (S)-2-(((3-bromo-1-((6-(trifluoromethyl)pyridin-3-yl)methyl)-1H-pyrazol-4-yl)methyl)amino)-4,7,8-trimethyl-7,8-dihydropteridin-6(5H)-one], for which the IC50 in test [1] (setting [5]) was 60 to 600 nM; in test [2] (Homo sapiens), < 600 nM; in test [3] (Homo sapiens, HEK293), ≥ 3000 nM. The EC50 in test [4] (Homo sapiens, COLO 205, 0.6 h) is 600 to 2000 nM.

`Cc1nc(NCc2cnn(Cc3cncc(F)c3)c2)nc2c1NC(=O)[C@H](C(C)C)N2C` [Compound 415, (7S)-2-(((1-((5-fluoropyridin-3-yl)methyl)-1H-pyrazol-4-yl)methyl)amino)-7-isopropyl-4,8-dimethyl-7,8-dihydropteridin-6(5H)-one]: the IC50 in test [1] (setting [5]) is < 60 nM; in test [2] (Homo sapiens), 600 to 2000 nM; in test [3] (Homo sapiens, HEK293), ≥ 3000 nM. Moreover, the concentration for a half-maximal effect (EC50) in test [4] (Homo sapiens, COLO 205, 0.6 h) is 600 to 2000 nM.

In the case of `Cc1nc(NCc2cnn(Cc3ccc(C(F)(F)F)nc3C(C)(C)O)c2)nc2c1NC(=O)[C@H](C)N2C` [Compound 416, (7S)-2-(((1-((2-(2-hydroxypropan-2-yl)-6-(trifluoromethyl)pyridin-3-yl)methyl)-1H-pyrazol-4-yl)methyl)amino)-4,7,8-trimethyl-7,8-dihydropteridin-6(5H)-one], the IC50 in test [1] (setting [5]) is < 60 nM; in test [2] (Homo sapiens) it was < 600 nM; in test [3] (Homo sapiens, HEK293), ≥ 3000 nM. The EC50 in test [4] (Homo sapiens, COLO 205, 0.6 h) fell in the range of 600 to 2000 nM.

`Cc1nc(NCc2cnn(Cc3ccc(C(F)(F)F)nc3Cl)c2)nc2c1NC(=O)[C@H](C)N2C` [Compound 418, (7S)-2-(((1-((2-chloro-6-(trifluoromethyl)pyridin-3-yl)methyl)-1H-pyrazol-4-yl)methyl)amino)-4,7,8-trimethyl-7,8-dihydropteridin-6(5H)-one]: the IC50 in test [1] (setting [5]) is < 60 nM; in test [2] (Homo sapiens), < 600 nM; in test [3] (Homo sapiens, HEK293), ≥ 3000 nM. Besides, in test [4] (Homo sapiens, COLO 205, 0.6 h), the EC50 is < 600 nM.

For the compound `Cc1nc(NCc2cnn(Cc3ccc(C(F)(F)F)nc3C(C)O)c2)nc2c1NC(=O)[C@H](C)N2C` (stereo partly drawn) [Compound 419, (7S)-2-(((1-((2-((S)-1-hydroxyethyl)-6-(trifluoromethyl)pyridin-3-yl)methyl)-1H-pyrazol-4-yl)methyl)amino)-4,7,8-trimethyl-7,8-dihydropteridin-6(5H)-one], the IC50 in test [1] (setting [5]) is 60 to 600 nM; in test [2] (Homo sapiens) it was 2000 to 10000 nM; in test [3] (Homo sapiens, HEK293) it was ≥ 3000 nM. Also, in test [4] (Homo sapiens, COLO 205, 0.6 h), the EC50 is 2000 to 10000 nM.

`Cc1nc(NCc2cnn(Cc3ccc(F)nc3)c2)nc2c1NC(=O)[C@H](C1CC1)N2C` [Compound 421, (7S)-7-cyclopropyl-2-(((1-((6-fluoropyridin-3-yl)methyl)-1H-pyrazol-4-yl)methyl)amino)-4,8-dimethyl-7,8-dihydropteridin-6(511)-one]: the IC50 in test [1] (setting [6]) is 60 to 600 nM; in test [2] it was < 600 nM; in test [3] (Hek293 empty vector) it was ≥ 3000 nM. Moreover, in test [4], the EC50 was 600 to 2000 nM.

In the case of `Cc1cc(F)ncc1Cn1cc(CNc2nc(C)c3c(n2)N(C)[C@@H](C(C)C)C(=O)N3)cn1` [Compound 423, (7S)-2-(((1-((6-fluoro-4-methylpyridin-3-yl)methyl)-1H-pyrazol-4-yl)methyl)amino)-7-isopropyl-4,8-dimethyl-7,8-dihydropteridin-6(5H)-one], the IC50 is < 60 nM in test [1] (setting [5]); < 600 nM in test [2] (Homo sapiens); ≥ 3000 nM in test [3] (Homo sapiens, HEK293). Besides, the EC50 in test [4] (Homo sapiens, COLO 205, 0.6 h) fell in the range of 600 to 2000 nM.

`Cc1nc(NCc2cnn(Cc3cnc(Cl)c(F)c3)c2)nc2c1NC(=O)[C@H](C(C)C)N2C` [Compound 424, (7S)-2-(((1-((6-chloro-5-fluoropyridin-3-yl)methyl)-1H-pyrazol-4-yl)methyl)amino)-7-isopropyl-4,8-dimethyl-7,8-dihydropteridin-6(5H)-one]: the IC50 is < 60 nM in test [1] (setting [5]); < 600 nM in test [2] (Homo sapiens); ≥ 3000 nM in test [3] (Homo sapiens, HEK293). In test [4] (Homo sapiens, COLO 205, 0.6 h), the 50% effective concentration (EC50) lay in the range of 600 to 2000 nM.

Regarding `Cc1ncc(Cn2cc(CNc3nc(C)c4c(n3)N(C)[C@@H](C(C)C)C(=O)N4)cn2)cc1F` [Compound 425, (7S)-2-(((1-((5-fluoro-6-methylpyridin-3-yl)methyl)-1H-pyrazol-4-yl)methyl)amino)-7-isopropyl-4,8-dimethyl-7,8-dihydropteridin-6(5H)-one], the IC50 is 60 to 600 nM in test [1] (setting [5]); 600 to 2000 nM in test [2] (Homo sapiens); ≥ 3000 nM in test [3] (Homo sapiens, HEK293). Besides, the EC50 in test [4] (Homo sapiens, COLO 205, 0.6 h) lay within 600 to 2000 nM.

For `CC[C@H]1C(=O)Nc2cnc(NCc3cnn(Cc4ccc(C(F)(F)F)nc4)c3)nc2N1C` [Compound 427, (7S)-7-ethyl-8-methyl-2-(((1-((6-(trifluoromethyl)pyridin-3-yl)methyl)-1H-pyrazol-4-yl)methyl)amino)-7,8-dihydropteridin-6(5H)-one], the IC50 was 60 to 600 nM in test [1] (setting [5]); 600 to 2000 nM in test [2] (Homo sapiens); ≥ 3000 nM in test [3] (Homo sapiens, HEK293). Also, the 50% effective concentration (EC50) in test [4] (Homo sapiens, COLO 205, 0.6 h) lay in the range of 600 to 2000 nM.

Turning to `Cc1nc(NCc2cn(Cc3ccc(C(F)(F)F)nc3)cn2)nc2c1NC(=O)[C@H](C)N2C` [Compound 428, (S)-4,7,8-trimethyl-2-(((1-((6-(trifluoromethyl)pyridin-3-yl)methyl)-1H-imidazol-4-yl)methyl)amino)-7,8-dihydropteridin-6(5H)-one], the IC50 is ≥ 3000 nM in test [1] (setting [5]); ≥ 10000 nM in test [2] (Homo sapiens); ≥ 3000 nM in test [3] (Homo sapiens, HEK293). Moreover, in test [4] (Homo sapiens, COLO 205, 0.6 h), the EC50 was ≥ 10000 nM.

In the case of “(7S)-2-(((1-((6-fluoro-2-isopropylpyridin-3-yl)methyl)-1H-pyrazol-4-yl)methyl)(methyl)amino)-7-isopropyl-4,8-dimethyl-7,8-dihydropteridin-6(5H)-one [Compound 430]”, the IC50 is < 60 nM in test [1] (setting [6]), < 600 nM in test [2] and ≥ 3000 nM in test [3] (Hek293 empty vector). Besides, the 50% effective concentration (EC50) in test [4] was in the range of 600 to 2000 nM.
